According to article PMC2931804 (Clinical cancer research : an official journal of the …, 2010):

Assays:
[1] = vorinostat with FOLFOX; cited from earlier work
[2] = FU plasma pharmacokinetics; format: in vivo, human

FU Cmax with vorinostat relative to without (times lower) ([2]; 1,700 mg vorinostat once daily, cycle 2 vs cycle 1, statistically significant): 0.82 times
Structure (SMILES): O=c1[nH]cc(F)c(=O)[nH]1 [FU, 5-fluorouracil]
FU clearance at higher vorinostat dose-levels [1]: lower FU clearance | Change in FU clearance with the addition of vorinostat ([2]; once-daily or twice-daily MTD): did not observe any decrease
